A value given as a limit tells only on which side of the number the result lay.

The target in this assay is T1, human CB1 receptor (Homo sapiens, UniProt P21554).
T1 construct: expressed in transfected cells; membranes used
T1 sequence (P21554 whole entry): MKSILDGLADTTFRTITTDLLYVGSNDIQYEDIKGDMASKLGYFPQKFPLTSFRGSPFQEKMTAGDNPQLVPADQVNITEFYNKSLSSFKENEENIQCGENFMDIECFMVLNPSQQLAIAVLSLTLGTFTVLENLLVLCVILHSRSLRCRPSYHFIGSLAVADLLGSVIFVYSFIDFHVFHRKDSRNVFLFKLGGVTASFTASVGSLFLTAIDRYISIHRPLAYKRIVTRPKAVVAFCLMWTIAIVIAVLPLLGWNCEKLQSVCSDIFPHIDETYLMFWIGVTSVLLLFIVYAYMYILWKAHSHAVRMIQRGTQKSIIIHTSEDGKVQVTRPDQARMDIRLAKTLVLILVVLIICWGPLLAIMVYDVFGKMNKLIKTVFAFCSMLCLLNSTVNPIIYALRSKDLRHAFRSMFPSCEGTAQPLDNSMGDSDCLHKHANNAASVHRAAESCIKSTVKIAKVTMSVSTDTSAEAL
Put plainly: Cannabinoid Receptor-1 functional assay: inhibition of CP55940-induced [35S]GTPγS binding to membranes of CHO-K1 cells expressing human CB1. The assay is classed as biochemical. The note with it: 3 nM CP55940, [35S]GTPγS SPA, hCB1 membranes; read-out: IC50 value for antagonizing a CB1 receptor agonist. The gist of the method:
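Membranes (5 μg/well) from CHO-K1 cells stably expressing human CB1 incubated 1 hr at room temperature with 1 nM [35S]GTPγS, 3 nM CP55940 and test compound in HEPES pH 7.5 buffer with 1 μM GDP, saponin. Bound label read by SPA after 30 min with beads; IC50 by non-linear regression.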
For orientation: GTPγS resists hydrolysis and so accumulates on activated G proteins.
One may read the IC50 as the concentration that inhibits the measured activity by half. Take `O=C(O)Cc1c(C(=O)N2CCC(O)(c3ccc(F)c(Cl)c3)CC2)nn(-c2ccccc2Cl)c1-c1ccc(Cl)cc1` [[1.43], [3-[4-(3-Chloro-4-fluoro-phenyl)-4-hydroxy-piperidine-1-carbonyl]-1-(2-chloro-phenyl)-5-(4-chloro-phenyl)-1H-pyrazol-4-yl]-acetic acid]: the IC50 was less than 300 nM.

Turning to `O=C(O)Cc1c(C(=O)N2CCCC2)nn(-c2ccccc2Cl)c1-c1ccc(Cl)cc1` [[1.46], [1-(2-Chloro-phenyl)-5-(4-chloro-phenyl)-3-(pyrrolidine-1-carbonyl)-1H-pyrazol-4-yl]-acetic acid], the IC50 fell in the range of 300 to 3000 nM.

For the compound `O=C(O)Cc1c(C(=O)N2CCC(O)(c3ccccn3)CC2)nn(-c2ccccc2Cl)c1-c1ccc(Cl)cc1` [[1.9], [1-(2-Chloro-phenyl)-5-(4-chloro-phenyl)-3-(4′-hydroxy-3′,4′,5′,6′-tetrahydro-2′H-[2,4′]bipyridinyl-1′-carbonyl)-1H-pyrazol-4yl]-acetic acid], the IC50 was in the range of 300 to 3000 nM.

For the compound `O=C(O)Cc1c(C(=O)N2CCC(O)(c3ccc(Cl)cc3)CC2)nn(-c2ccccc2Cl)c1-c1ccc(Cl)cc1` [[1.12], {1-(2-Chloro-phenyl)-5-(4-chloro-phenyl)-3-[4-(4-chloro-phenyl)-4-hydroxy-piperidine-1carbonyl]-1H-pyrazol-4-yl}-acetic acid], the IC50 is less than 300 nM.

`CS(=O)(=O)c1cccc(C2CCN(C(=O)c3nn(-c4ccccc4Cl)c(-c4ccc(Cl)cc4)c3CC(=O)O)CC2)c1` [[1.57], {1-(2-Chloro-phenyl)-5-(4-chloro-phenyl)-3-[4-(3-methylsulfonyl-phenyl)-piperidine-1-carbonyl]-1H-pyrazol-4-yl}-acetic acid]: the IC50 is 300 to 3000 nM.

(Values after patent US8148404B2, “Modulators of CB1 receptors” (7TM Pharma A/S, priority 2006, dated 2012).)
